Experimental findings from the supplement of paper PMC10307832 are described below.

Holding throughout (experiment): relative viability (nuclei count vs DMSO), 5 days (fraction); higher = more cells survive
Compound in test [1]: Nc1ccccc1NC(=O)c1ccc(CNC(=O)OCc2cccnc2)cc1 [Entinostat] + CCNC(=O)c1noc(-c2cc(C(C)C)c(O)cc2O)c1-c1ccc(CN2CCOCC2)cc1 [Luminespib] (partner 0.01 µM)
In short, it runs like this:
(§1)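 Each reported value is a median over duplicate plates. It expresses relative viability: treated-well nuclei count divided by vehicle-well nuclei count. Lung cancer cell lines in 1536-well plates were dosed by pin tool a day after seeding, alone with one drug or with a fixed anchor-drug dose plus five library-drug doses (not always all listed) in √10 steps, and nuclei were counted after 5 days.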

Compound in test [2]: CN1CCC(CNc2ccc3ncc(-c4cccc(OC(F)(F)F)c4)n3n2)CC1 [SGI-1776] + CS(=O)(=O)CCNCc1ccc(-c2ccc3ncnc(Nc4ccc(OCc5cccc(F)c5)c(Cl)c4)c3c2)o1 [Lapatinib] (partner 2 µM)
In short, it runs like this: as §1

Compound in test [3]: Nc1ccccc1NC(=O)c1ccc(CNC(=O)OCc2cccnc2)cc1 [Entinostat] + COc1cc2c(Oc3ccc(NC(=O)C4(C(=O)Nc5ccc(F)cc5)CC4)cc3F)ccnc2cc1OCCCN1CCOCC1 [Foretinib] (partner 0.25 µM)
In short, it runs like this:
as §1

Compound in test [4]: C1COCCN1C2=NC(=NC3=C2OC4=C3C=CC=N4)C5=CC(=CC=C5)NC(=O)C6=CN=C(C=C6)N + COc1cccc2cc(-c3nc([C@H]4CC[C@H](C(=O)O)CC4)n4ncnc(N)c34)[nH]c12 [OSI-027] (partner 0.5 µM)
In short, it runs like this:
as §1

In the case of UMC-11, the relative viability in test [1] (first compound 0.02 µM) worked out at 1.06; in test [1] (first compound 0.06325 µM), 1.14; in test [1] (first compound 0.2 µM) it was 0.937; in test [1] (first compound 0.6325 µM) it was 0.261; in test [1] (first compound 2 µM) it was 0.221; in test [2] (first compound 0.08 µM) it was 0.907. For the same cell line, the relative viability turned out to be 1.12 in test [2] (first compound 0.8 µM); 1.11 in test [2] (first compound 2.53 µM); 0.644 in test [2] (first compound 8 µM); 1.22 in test [3] (first compound 0.02 µM); 1.08 in test [3] (first compound 0.06325 µM); 0.834 in test [3] (first compound 0.2 µM). The relative viability is 0.273 in test [3] (first compound 0.6325 µM); 0.201 in test [3] (first compound 2 µM); 0.443 in test [4] (first compound 0.02 µM); 0.511 in test [4] (first compound 0.06325 µM); 0.46 in test [4] (first compound 0.2 µM); 0.406 in test [4] (first compound 0.6325 µM). Besides, the relative viability in test [4] (first compound 2 µM) was found to be 0.375.
